The target in the experiment is T1, angiotension converting enzyme (Cavia porcellus, UniProt H0UWL7).
T1 construct: from tissue; host or cells: guinea pig ileum
T1 sequence (H0UWL7 33-1302): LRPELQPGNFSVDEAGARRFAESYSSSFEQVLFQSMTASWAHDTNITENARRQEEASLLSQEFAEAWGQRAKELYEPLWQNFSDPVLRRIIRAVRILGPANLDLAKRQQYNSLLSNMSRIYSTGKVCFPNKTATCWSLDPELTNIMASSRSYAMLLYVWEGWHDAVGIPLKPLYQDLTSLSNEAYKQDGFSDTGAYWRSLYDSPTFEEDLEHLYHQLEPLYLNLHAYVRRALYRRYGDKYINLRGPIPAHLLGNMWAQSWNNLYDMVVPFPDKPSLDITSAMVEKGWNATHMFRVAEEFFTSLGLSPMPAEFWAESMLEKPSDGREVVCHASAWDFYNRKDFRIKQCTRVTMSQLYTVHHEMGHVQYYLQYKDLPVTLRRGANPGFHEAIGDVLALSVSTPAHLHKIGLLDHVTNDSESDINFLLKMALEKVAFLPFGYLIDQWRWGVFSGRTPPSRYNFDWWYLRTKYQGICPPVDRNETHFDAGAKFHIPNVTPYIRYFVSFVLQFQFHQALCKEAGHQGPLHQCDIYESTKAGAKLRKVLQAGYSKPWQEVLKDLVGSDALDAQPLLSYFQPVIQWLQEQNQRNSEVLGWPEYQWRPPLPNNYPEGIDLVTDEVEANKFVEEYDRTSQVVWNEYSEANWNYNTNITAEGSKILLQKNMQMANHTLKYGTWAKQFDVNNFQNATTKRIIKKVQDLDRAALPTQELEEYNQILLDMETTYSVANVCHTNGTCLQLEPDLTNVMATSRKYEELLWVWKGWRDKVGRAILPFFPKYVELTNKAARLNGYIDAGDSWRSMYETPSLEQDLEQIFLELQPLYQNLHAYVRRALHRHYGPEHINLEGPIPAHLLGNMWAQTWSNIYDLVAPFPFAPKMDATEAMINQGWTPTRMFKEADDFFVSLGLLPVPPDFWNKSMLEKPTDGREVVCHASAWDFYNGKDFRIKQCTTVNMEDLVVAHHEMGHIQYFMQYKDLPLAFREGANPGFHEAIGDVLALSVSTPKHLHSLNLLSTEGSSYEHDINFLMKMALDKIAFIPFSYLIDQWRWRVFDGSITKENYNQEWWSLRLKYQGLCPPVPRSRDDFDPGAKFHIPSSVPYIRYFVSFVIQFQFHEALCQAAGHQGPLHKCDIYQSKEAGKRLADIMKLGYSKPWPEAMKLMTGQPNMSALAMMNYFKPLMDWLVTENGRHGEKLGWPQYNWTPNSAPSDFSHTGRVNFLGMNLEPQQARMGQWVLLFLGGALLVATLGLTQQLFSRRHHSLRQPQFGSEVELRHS
As to the kind of experiment: angiotensin converting enzyme inhibition in guinea pig ileum (inhibition of contractile responses to Angiotensin I). In kind it is cell-based. The following applies: dose-dependent inhibition of contractile responses to Angiotensin I, in vitro, read-out: EC50 (the source's name). The source says: (b) ACE inhibition in vitro
In any assay for angiotension converting enzyme inhibition in guinea pig ileum, dose-dependent inhibition of contractile responses to Angiotensin I gave the following results: […]

Structures are written as SMILES. Where a name gives a salt, the structure may show the parent alone.

Regarding `CC(C)NCC(O)COc1cccc2ccc(CNCCCC[C@H](NC(C)C(=O)N3CCC[C@H]3C(=O)O)C(=O)O)cc12` (stereo partly drawn) [Example 5, N-(1(S)-Carboxy-5-[8-(2(S,R)-hydroxy-3-isopropylaminopropoxy)naphth-2-ylmethylamino]pentyl)-(S,R)-alanyl-(S)-proline tristrifluoroacetate], the IC50 amounted to 9.6 nM.
In the case of `CC(C)NCC(O)COc1cccc2c(OCC(=O)NCCCC[C@H](NC(C)C(=O)N3CCC[C@H]3C(=O)O)C(=O)O)cccc12` (stereo partly drawn) [Example 2, N-(l(S)-Carboxy-5-(2-[5-(2(S,R)-hydroxy-3-isopropylaminopropoxy)-naphth-1-yloxy]acetamido)pentyl)-(S,R)-alanyl-(S)-proline dihydrochloride acetate hemihydrate] it was 13.5 nM.

These data come from EP0237239A2, “New compounds” (THE WELLCOME FOUNDATION LIMITED, priority 1986, dated 1987).
